Source: patent US20200231638A1, “STABILIZED ANTI-MICROBIAL PEPTIDES” (priority 2015, published 2020)
Bridge positions count the residues as written; N and C are the ends. Square brackets hold non-standard residues; d marks the D form. Peptide text beside a SMILES is read from it. R8 = C=CCCCCCC[C@@](C)(N)C(=O)O; S5 = C=CCCC[C@](C)(N)C(=O)O; Nle = CCCC[C@H](N)C(=O)O

Legend:
P. aeruginosa = assay type: cell-based, Pseudomonas aeruginosa
Method in brief: (§1)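 Microdilution MIC test in polyanion-depleted MHB, with a final inoculum of 5×10^5 CFU/ml and 20-24 h incubation at 37° C.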

E. coli = assay type: cell-based, Escherichia coli
Method in brief: as §1

human red blood cells = assay type: cell-based; settings: red cells of human, 1 h, 25
Method in brief: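 Hemolysis expressed as absorbance of released hemoglobin (570 nm) normalized between untreated and 1% Triton-X100 controls, with MHC taken as peptide concentration giving under 1% release. Peptide dilutions were exposed for 1 h at 37° C to a 1% (v/v) suspension of washed human red cells in PBS.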

B. cereus = assay type: cell-based, Bacillus cereus
Method in brief: as §1

S. aureus = assay type: cell-based, Staphylococcus aureus
Method in brief: as §1

SMILES | MIC P. aeruginosa (P. aeruginosa) | MIC E. coli (E. coli) | % Hemolysis at 25 μg/ml (human red blood cells) | MIC B. cereus (B. cereus) | MIC S. aureus (S. aureus)
CCCC[C@H](NC(=O)[C@@H](NC(=O)[C@H](CCC(=O)O)NC(=O)CNC(=O)[C@@H](NC(=O)[C@H](Cc1ccccc1)NC(=O)[C@H](C)NC(=O)[C@H](CCCCN)NC(=O)CNC(=O)[C@H](Cc1ccccc1)NC(=O)[C@]1(C)CCCC=CCCCCCC[C@@](C)(NC(=O)CNC(=O)[C@@H](NC(=O)CN)[C@@H](C)CC)C(=O)N[C@@H](Cc2ccccc2)C(=O)N[C@@H](CC(C)C)C(=O)N[C@@H](Cc2c[nH]cn2)C(=O)N[C@@H](CO)C(=O)N[C@@H](C)C(=O)N[C@@H](CCCCN)C(=O)N1)C(C)C)[C@@H](C)CC)C(=O)N[C@@H](CC(N)=O)C(=O)N[C@@H](CO)C(N)=O [Mag(i + 7)3] (H-GIG[R8]FLHSAK[S5]FGKAFVGEI[Nle]NS-NH2; staple 4-11 (inferred); N-terminus and C-terminus assumed) | 25 µg/mL | 6.2 µg/mL | 52.5% | 12.5 µg/mL | 12.5 µg/mL
CCCC[C@H](NC(=O)[C@]1(C)CCCC=CCCC[C@](C)(NC(=O)[C@H](C)NC(=O)[C@H](CCCCN)NC(=O)CNC(=O)[C@H](Cc2ccccc2)NC(=O)[C@H](CCCCN)NC(=O)[C@H](CCCCN)NC(=O)[C@H](C)NC(=O)[C@H](CO)NC(=O)[C@H](Cc2c[nH]cn2)NC(=O)[C@H](CC(C)C)NC(=O)[C@H](Cc2ccccc2)NC(=O)[C@H](CCCCN)NC(=O)CNC(=O)[C@@H](NC(=O)[C@@H](N)CCCCN)[C@@H](C)CC)C(=O)N[C@@H](C(C)C)C(=O)NCC(=O)N[C@@H](CCC(=O)O)C(=O)N1)C(=O)N[C@@H](CC(N)=O)C(=O)N[C@@H](CO)C(N)=O [Mag(i + 4)15(G1K), KIGKFLHSAKKFGKAXVGEXBNS] (H-KIGKFLHSAKKFGKA[S5]VGE[S5][Nle]NS-NH2; staple 16-20) | 3.1 µg/mL | 1.6 µg/mL | 4.5% | 12.5 µg/mL | 25 µg/mL
CCCC[C@H](NC(=O)[C@@H](NC(=O)[C@H](CCC(=O)O)NC(=O)CNC(=O)[C@@H](NC(=O)[C@H](Cc1ccccc1)NC(=O)[C@]1(C)CCCC=CCCC[C@](C)(NC(=O)[C@H](CCCCN)NC(=O)[C@H](C)NC(=O)[C@H](CO)NC(=O)[C@H](Cc2c[nH]cn2)NC(=O)[C@H](CC(C)C)NC(=O)[C@H](Cc2ccccc2)NC(=O)[C@H](CCCCN)NC(=O)CNC(=O)[C@@H](NC(=O)CN)[C@@H](C)CC)C(=O)N[C@@H](Cc2ccccc2)C(=O)NCC(=O)N[C@@H](CCCCN)C(=O)N1)C(C)C)[C@@H](C)CC)C(=O)N[C@@H](CC(N)=O)C(=O)N[C@@H](CO)C(N)=O [Mag(i + 4)10] (H-GIGKFLHSAK[S5]FGK[S5]FVGEI[Nle]NS-NH2; staple 11-15) | 12.5 µg/mL | 3.1 µg/mL | 23.6% | 6.2 µg/mL | 6.2 µg/mL
CCCC[C@H](NC(=O)[C@]1(C)CCCC=CCCC[C@](C)(NC(=O)[C@H](C)NC(=O)[C@H](CCCCN)NC(=O)[C@H](CCCCN)NC(=O)[C@H](Cc2ccccc2)NC(=O)[C@H](CCCCN)NC(=O)[C@H](CCCCN)NC(=O)[C@H](C)NC(=O)[C@H](CO)NC(=O)[C@H](Cc2c[nH]cn2)NC(=O)[C@H](CC(C)C)NC(=O)[C@H](Cc2ccccc2)NC(=O)[C@H](CCCCN)NC(=O)CNC(=O)[C@@H](NC(=O)CN)[C@@H](C)CC)C(=O)N[C@@H](C(C)C)C(=O)NCC(=O)N[C@@H](CCC(=O)O)C(=O)N1)C(=O)N[C@@H](CC(N)=O)C(=O)N[C@@H](CO)C(N)=O [Mag(i + 4)15(G13K), GIGKFLHSAKKFKKAXVGEXBNS] (H-GIGKFLHSAKKFKKA[S5]VGE[S5][Nle]NS-NH2; staple 16-20) | 12.5 µg/mL | 3.1 µg/mL | 1.8% | >50 µg/mL | >50 µg/mL
CCCC[C@H](NC(=O)[C@]1(C)CCCC=CCCC[C@](C)(NC(=O)[C@H](C)NC(=O)[C@H](CCCCN)NC(=O)CNC(=O)[C@H](Cc2ccccc2)NC(=O)[C@H](CCCCN)NC(=O)[C@H](CCCCN)NC(=O)[C@H](C)NC(=O)[C@H](CO)NC(=O)[C@H](Cc2c[nH]cn2)NC(=O)[C@H](CC(C)C)NC(=O)[C@H](Cc2ccccc2)NC(=O)[C@H](CCCCN)NC(=O)CNC(=O)[C@@H](NC(=O)CN)[C@@H](C)CC)C(=O)N[C@@H](C(C)C)C(=O)NCC(=O)N[C@@H](CCC(=O)O)C(=O)N1)C(=O)N[C@@H](CCCCN)C(=O)N[C@@H](CO)C(N)=O [Mag(i + 4)15(N22K), GIGKFLHSAKKFGKAXVGEXBKS] (H-GIGKFLHSAKKFGKA[S5]VGE[S5][Nle]KS-NH2; staple 16-20) | 3.1 µg/mL | 1.6 µg/mL | 12.0% | 3.1 µg/mL | 12.5 µg/mL
CCCC[C@H](NC(=O)[C@@H](NC(=O)[C@H](CCC(=O)O)NC(=O)[C@]1(C)CCCC=CCCCCCC[C@@](C)(NC(=O)[C@H](CCCCN)NC(=O)[C@H](C)NC(=O)[C@H](CO)NC(=O)[C@H](Cc2c[nH]cn2)NC(=O)[C@H](CC(C)C)NC(=O)[C@H](Cc2ccccc2)NC(=O)[C@H](CCCCN)NC(=O)CNC(=O)[C@@H](NC(=O)CN)[C@@H](C)CC)C(=O)N[C@@H](Cc2ccccc2)C(=O)NCC(=O)N[C@@H](CCCCN)C(=O)N[C@@H](C)C(=O)N[C@@H](Cc2ccccc2)C(=O)N[C@@H](C(C)C)C(=O)N1)[C@@H](C)CC)C(=O)N[C@@H](CC(N)=O)C(=O)N[C@@H](CO)C(N)=O [Mag(i + 7)10] (H-GIGKFLHSAK[R8]FGKAFV[S5]EI[Nle]NS-NH2; staple 11-18) | 6.2 µg/mL | 3.1 µg/mL | 53.1% | 6.2 µg/mL | 3.1 µg/mL
CCCC[C@H](NC(=O)[C@]1(C)CCCC=CCCC[C@](C)(NC(=O)[C@H](C)NC(=O)[C@H](CCCCN)NC(=O)CNC(=O)[C@H](CCC(=O)O)NC(=O)[C@H](CCCCN)NC(=O)[C@H](CCCCN)NC(=O)[C@H](C)NC(=O)[C@H](CO)NC(=O)[C@H](Cc2c[nH]cn2)NC(=O)[C@H](CC(C)C)NC(=O)[C@H](Cc2ccccc2)NC(=O)[C@H](CCCCN)NC(=O)CNC(=O)[C@@H](NC(=O)CN)[C@@H](C)CC)C(=O)N[C@@H](C(C)C)C(=O)NCC(=O)N[C@@H](CCC(=O)O)C(=O)N1)C(=O)N[C@@H](CC(N)=O)C(=O)N[C@@H](CO)C(N)=O [Mag(i + 4)15(F12E), GIGKFLHSAKKEGKAXVGEXBNS] (H-GIGKFLHSAKKEGKA[S5]VGE[S5][Nle]NS-NH2; staple 16-20) | >50 µg/mL | 50 µg/mL | 0.6% | >50 µg/mL | >50 µg/mL
